These compounds were tested on RS4;11 cells (assay: Cell viability assay (CellTiter-Glo) in RS4;11 cells). Conditions: Homo sapiens, 72 h; RS4;11 cells; cell viability, 3 days, CellTiter-Glo; read-out: IC50.
Assay type: cell-based
Procedure, shortened: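 Three-day compound treatment of RS4;11 ALL cells (5000/well, 3-fold dilution series of 8 or 12 points), with IC50 from a nonlinear least-squares fit to CellTiter-Glo viability data.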

| Structure (SMILES) | IC50 [µM] |
| --- | --- |
| CS(=O)(=O)c1ccc(-c2cccc3nc(Nc4ccc(N5CCN(C(=O)CCOCCOCCOCCOCCNc6ccc7c(c6)C(=O)N(C6CCC(=O)NC6=O)C7=O)CC5)cc4)nn23)cc1 (stereo not drawn) [JA-197, 2-(2,6-Dioxopiperidin-3-yl)-5-((15-(4-(4-((5-(4-(methylsulfonyl)phenyl)-[1,2,4]triazolo[1,5-a]pyridin-2-yl)amino)phenyl)piperazin-1-yl)-15-oxo-3,6,9,12-tetraoxapentadecyl)amino)isoindoline-1,3-dione] | 5.55 |
| CS(=O)(=O)c1ccc(-c2cccc3nc(Nc4ccc(N5CCN(CC(=O)NCCOCCOCCOCCOCCOCCNc6ccc7c(c6)C(=O)N(C6CCC(=O)NC6=O)C7=O)CC5)cc4)nn23)cc1 (stereo not drawn) [JA-211, N-(17-((2-(2,6-Dioxopiperidin-3-yl)-1,3-dioxoisoindolin-5-yl)amino)-3,6,9,12,15-pentaoxaheptadecyl)-2-(4-(4-((5-(4-(methylsulfonyl)phenyl)-[1,2,4]triazolo[1,5-a]pyridin-2-yl)amino)phenyl)piperazin-1-yl)acetamide] | > 10 |
| Cc1ncsc1-c1ccc(CNC(=O)[C@@H]2C[C@@H](O)CN2C(=O)[C@@H](NC(=O)CCCCCNC(=O)CN2CCC(n3cc(-c4cnc5cccc(-c6cc(F)c(CN7CCOCC7)c(F)c6)c5n4)cn3)CC2)C(C)(C)C)cc1 [JA-164, (2S,4R)-1-((S)-2-(6-(2-(4-(4-(8-(3,5-Difluoro-4-(morpholinomethyl)phenyl)quinoxalin-2-yl)-1H-pyrazol-1-yl)piperidin-1-yl)acetamido)hexanamido)-3,3-dimethylbutanoyl)-4-hydroxy-N-(4-(4-methylthiazol-5-yl)benzyl)pyrrolidine-2-carboxamide] | > 10 |
| CS(=O)(=O)c1ccc(-c2cccc3nc(Nc4ccc(N5CCN(CC(=O)NCCCNc6ccc7c(c6)C(=O)N(C6CCC(=O)NC6=O)C7=O)CC5)cc4)nn23)cc1 (stereo not drawn) [JA-210, N-(3-((2-(2,6-Dioxopiperidin-3-yl)-1,3-dioxoisoindolin-5-yl)amino)propyl)-2-(4-(4-((5-(4-(methylsulfonyl)phenyl)-[1,2,4]triazolo[1,5-a]pyridin-2-yl)amino)phenyl)piperazin-1-yl)acetamide] | > 10 |
| Cc1ncsc1-c1ccc(CNC(=O)[C@@H]2C[C@@H](O)CN2C(=O)[C@@H](NC(=O)CCCCCNC(=O)CN2CCN(c3ccc(Nc4nc5cccc(-c6ccc(S(C)(=O)=O)cc6)n5n4)cc3)CC2)C(C)(C)C)cc1 [JA-122, (2S,4R)-1-((S)-3,3-Dimethyl-2-(6-(2-(4-(4-((5-(4-(methylsulfonyl)phenyl)-[1,2,4]triazolo[1,5-a]pyridin-2-yl)amino)phenyl)piperazin-1-yl)acetamido)hexanamido)butanoyl)-4-hydroxy-N-(4-(4-methylthiazol-5-yl)benzyl)pyrrolidine-2-carboxamide] | > 10 |
| Cc1cnc(Nc2ccc(N3CCN(C(=O)CCOCCOCCOCCOCCOCCC(=O)N[C@H](C(=O)N4C[C@H](O)C[C@H]4C(=O)NCc4ccc(-c5scnc5C)cc4)C(C)(C)C)CC3)cc2)nc1Nc1cccc(S(=O)(=O)NC(C)(C)C)c1 [JA-037, (2S,4R)-1-((S)-2-(tert-Butyl)-22-(4-(4-((4-((3-(N-(tert-butyl)sulfamoyl)phenyl)amino)-5-methylpyrimidin-2-yl)amino)phenyl)piperazin-1-yl)-4,22-dioxo-7,10,13,16,19-pentaoxa-3-azadocosanoyl)-4-hydroxy-N-(4-(4-methylthiazol-5-yl)benzyl)pyrrolidine-2-carboxamide] | > 10 |
| Cc1cnc(Nc2ccc(N3CCN(CC(=O)NCCOCCOCCC(=O)N[C@H](C(=O)N4C[C@H](O)C[C@H]4C(=O)NCc4ccc(-c5scnc5C)cc4)C(C)(C)C)CC3)cc2)nc1Nc1cccc(S(=O)(=O)NC(C)(C)C)c1 [JA-219, (2S,4R)-1-((S)-14-(tert-butyl)-1-(4-(4-((4-((3-(N-(tert-butyl)sulfamoyl)phenyl)amino)-5-methylpyrimidin-2-yl)amino)phenyl)piperazin-1-yl)-2,12-dioxo-6,9-dioxa-3,13-diazapentadecan-15-oyl)-4-hydroxy-N-(4-(4-methylthiazol-5-yl)benzyl)pyrrolidine-2-carboxamide] | > 10 |
| CS(=O)(=O)c1ccc(-c2cccc3nc(Nc4ccc(N5CCN(CC(=O)NCCCCCCCNc6cccc7c6C(=O)N(C6CCC(=O)NC6=O)C7=O)CC5)cc4)nn23)cc1 (stereo not drawn) [JA-116, N-(7-((2-(2,6-Dioxopiperidin-3-yl)-1,3-dioxoisoindolin-4-yl)amino)heptyl)-2-(4-(4-((5-(4-(methylsulfonyl)phenyl)-[1,2,4]triazolo[1,5-a]pyridin-2-yl)amino)phenyl)piperazin-1-yl)acetamide] | > 10 |
| Cc1cnc(Nc2ccc(N3CCN(CC(=O)NCCOCCOCCOCCC(=O)N[C@H](C(=O)N4C[C@H](O)C[C@H]4C(=O)NCc4ccc(-c5scnc5C)cc4)C(C)(C)C)CC3)cc2)nc1Nc1cccc(S(=O)(=O)NC(C)(C)C)c1 [JA-221, (2S,4R)-1-((S)-17-(tert-butyl)-1-(4-(4-((4-((3-(N-(tert-butyl)sulfamoyl)phenyl)amino)-5-methylpyrimidin-2-yl)amino)phenyl)piperazin-1-yl)-2,15-dioxo-6,9,12-trioxa-3,16-diazaoctadecan-18-oyl)-4-hydroxy-N-(4-(4-methylthiazol-5-yl)benzyl)pyrrolidine-2-carboxamide] | > 10 |
| Cn1c(=O)n(C2CCC(=O)NC2=O)c2cccc(NCCCCCCC(=O)N3CCC(n4cc(-c5cnc6cccc(-c7cc(F)c(CN8CCOCC8)c(F)c7)c6n5)cn4)CC3)c21 (stereo not drawn) [JA-283, 3-(4-((7-(4-(4-(8-(3,5-Difluoro-4-(morpholinomethyl)phenyl)quinoxalin-2-yl)-1H-pyrazol-1-yl)piperidin-1-yl)-7-oxoheptyl)amino)-3-methyl-2-oxo-2,3-dihydro-1H-benzo[d]imidazol-1-yl)piperidine-2,6-dione] | > 0.5 |

Now from value to compound:

| IC50 [µM] | Structure (SMILES) |
| --- | --- |
| 0.52 | O=C1CCC(N2Cc3ccc(NCCCCCC(=O)N4CCC(n5cc(-c6cnc7cccc(-c8cc(F)c(CN9CCOCC9)c(F)c8)c7n6)cn5)CC4)cc3C2=O)C(=O)N1 (stereo not drawn) [JA-272, 3-(6-((6-(4-(4-(8-(3,5-Difluoro-4-(morpholinomethyl)phenyl)quinoxalin-2-yl)-1H-pyrazol-1-yl)piperidin-1-yl)-6-oxohexyl)amino)-1-oxoisoindolin-2-yl)piperidine-2,6-dione] |
| 3.11 | Cc1cnc(Nc2ccc(N3CCN(C(=O)CCCNc4ccc5c(c4)C(=O)N(C4CCC(=O)NC4=O)C5=O)CC3)cc2)nc1Nc1cccc(S(=O)(=O)NC(C)(C)C)c1 (stereo not drawn) [JA-227, N-(tert-butyl)-3-((2-((4-(4-(4-((2-(2,6-dioxopiperidin-3-yl)-1,3-dioxoisoindolin-5-yl)amino)butanoyl)piperazin-1-yl)phenyl)amino)-5-methylpyrimidin-4-yl)amino)benzenesulfonamide] |
| 2.58 | Cc1cnc(Nc2ccc(N3CCN(C(=O)CCNc4cccc5c4C(=O)N(C4CCC(=O)NC4=O)C5=O)CC3)cc2)nc1Nc1cccc(S(=O)(=O)NC(C)(C)C)c1 (stereo not drawn) [JA-009, N-(tert-Butyl)-3-((2-((4-(4-(3-((2-(2,6-dioxopiperidin-3-yl)-1,3-dioxoisoindolin-4-yl)amino)propanoyl)piperazin-1-yl)phenyl)amino)-5-methylpyrimidin-4-yl)amino)benzenesulfonamide] |
| 0.15 | Cc1cnc(Nc2ccc(N3CCN(CC(=O)NCCCCCCNc4ccc5c(c4)C(=O)N(C4CCC(=O)NC4=O)C5=O)CC3)cc2)nc1Nc1cccc(S(=O)(=O)NC(C)(C)C)c1 (stereo not drawn) [JA-245, 2-(4-(4-((4-((3-(N-(tert-butyl)sulfamoyl)phenyl)amino)-5-methylpyrimidin-2-yl)amino)phenyl)piperazin-1-yl)-N-(6-((2-(2,6-dioxopiperidin-3-yl)-1,3-dioxoisoindolin-5-yl)amino)hexyl)acetamide] |
| 3.85 | Cc1ncsc1-c1ccc(CNC(=O)[C@@H]2C[C@@H](O)CN2C(=O)[C@@H](NC(=O)CCCCCCCCC(=O)N2CCN(c3ccc(Nc4nc5cccc(-c6ccc(S(C)(=O)=O)cc6)n5n4)cc3)CC2)C(C)(C)C)cc1 [JA-067, (2S,4R)-1-((S)-3,3-Dimethyl-2-(10-(4-(4-((5-(4-(methylsulfonyl)phenyl)-[1,2,4]triazolo[1,5-a]pyridin-2-yl)amino)phenyl)piperazin-1-yl)-10-oxodecanamido)butanoyl)-4-hydroxy-N-(4-(4-methylthiazol-5-yl)benzyl)pyrrolidine-2-carboxamide] |
| 3.66 | Cc1ncsc1-c1ccc(CNC(=O)[C@@H]2C[C@@H](O)CN2C(=O)[C@@H](NC(=O)CCCCCCCNC(=O)CN2CCC(n3cc(-c4cnc5cccc(-c6cc(F)c(CN7CCOCC7)c(F)c6)c5n4)cn3)CC2)C(C)(C)C)cc1 [JA-156, (2S,4R)-1-((S)-2-(8-(2-(4-(4-(8-(3,5-Difluoro-4-(morpholinomethyl)phenyl)quinoxalin-2-yl)-1H-pyrazol-1-yl)piperidin-1-yl)acetamido)octanamido)-3,3-dimethylbutanoyl)-4-hydroxy-N-(4-(4-methylthiazol-5-yl)benzyl)pyrrolidine-2-carboxamide] |
| 1.67 | O=C1CCC(N2Cc3ccc(OCCCCCC(=O)N4CCC(n5cc(-c6cnc7cccc(-c8cc(F)c(CN9CCOCC9)c(F)c8)c7n6)cn5)CC4)cc3C2=O)C(=O)N1 (stereo not drawn) [JA-274, 3-(6-((6-(4-(4-(8-(3,5-Difluoro-4-(morpholinomethyl)phenyl)quinoxalin-2-yl)-1H-pyrazol-1-yl)piperidin-1-yl)-6-oxohexyl)oxy)-1-oxoisoindolin-2-yl)piperidine-2,6-dione] |
| 2.14 | CS(=O)(=O)c1ccc(-c2cccc3nc(Nc4ccc(N5CCN(CC(=O)NCCOCCOCCNc6cccc7c6C(=O)N(C6CCC(=O)NC6=O)C7=O)CC5)cc4)nn23)cc1 (stereo not drawn) [JA-115, N-(2-(2-(2-((2-(2,6-Dioxopiperidin-3-yl)-1,3-dioxoisoindolin-4-yl)amino)ethoxy)ethoxy)ethyl)-2-(4-(4-((5-(4-(methylsulfonyl)phenyl)-[1,2,4]triazolo[1,5-a]pyridin-2-yl)amino)phenyl)piperazin-1-yl)acetamide] |

— patent US20230093099A1, “COMPOUNDS AND METHODS OF TREATING CANCERS” (CULLGEN (SHANGHAI), INC., priority 2019, published 2023)
